As a reminder, the EC50 is the concentration that produces a half-maximal response. Broadly, the half-life is how long it takes for the measured level to halve. Higher therefore signals slow loss. One may read the Cmax as the maximum level reached in the sampled fluid or tissue.

Results on one compound are retold here after ChEMBL document CHEMBL1933028, “Discovery of cyclic amine-substituted benzoic acids as PPARα agonists” (Bioorg Med Chem Lett, 2012).

Each structure is given as a SMILES string.

For data set [1], the target named is T1, Peroxisome proliferator-activated receptor alpha (Homo sapiens, UniProt Q07869).
T1 sequence (Q07869 whole entry): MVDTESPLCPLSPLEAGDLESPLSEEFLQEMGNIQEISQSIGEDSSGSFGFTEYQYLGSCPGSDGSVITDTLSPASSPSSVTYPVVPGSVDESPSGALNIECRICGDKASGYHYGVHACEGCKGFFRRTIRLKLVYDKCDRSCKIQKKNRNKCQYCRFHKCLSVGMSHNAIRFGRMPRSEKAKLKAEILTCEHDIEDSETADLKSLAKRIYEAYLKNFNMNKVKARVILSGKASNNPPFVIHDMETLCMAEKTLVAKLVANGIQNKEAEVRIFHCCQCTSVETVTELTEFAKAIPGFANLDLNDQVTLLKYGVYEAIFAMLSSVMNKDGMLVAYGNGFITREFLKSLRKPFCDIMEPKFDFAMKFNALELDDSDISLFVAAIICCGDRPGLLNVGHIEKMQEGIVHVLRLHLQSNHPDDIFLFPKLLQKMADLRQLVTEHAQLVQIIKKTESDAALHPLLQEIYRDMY
As to the kind of experiment: Transactivation of human PPARalpha expressed in CHO-K1 cells. It counts as cell-based.

Data set [2] has as its target T2, Peroxisome proliferator-activated receptor delta (Canis lupus familiaris, UniProt Q0ZAQ8).
T2 sequence (Q0ZAQ8 whole entry): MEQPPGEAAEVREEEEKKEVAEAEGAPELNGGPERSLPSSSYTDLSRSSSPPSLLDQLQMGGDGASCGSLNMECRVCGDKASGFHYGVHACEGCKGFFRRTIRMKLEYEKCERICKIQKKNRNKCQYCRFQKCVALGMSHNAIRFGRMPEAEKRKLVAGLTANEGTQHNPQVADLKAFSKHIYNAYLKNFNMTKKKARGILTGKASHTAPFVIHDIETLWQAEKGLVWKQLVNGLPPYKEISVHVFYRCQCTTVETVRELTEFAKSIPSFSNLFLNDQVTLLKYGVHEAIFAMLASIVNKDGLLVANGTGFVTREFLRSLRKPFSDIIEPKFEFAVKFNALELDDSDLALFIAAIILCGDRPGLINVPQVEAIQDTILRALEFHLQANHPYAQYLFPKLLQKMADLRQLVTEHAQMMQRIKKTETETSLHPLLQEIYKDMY
The data set can be described thus: Agonist activity at dog PPARdelta. It counts as functional.

Data set [3] in a line: Agonist activity at hamster PPARgamma. It counts as functional, Cricetinae.
Data set [4] is described as follows: Agonist activity at rat PPARdelta. It counts as functional.
In data set [5] the target is T3, Peroxisome proliferator-activated receptor alpha (Mus musculus, UniProt P23204).
T3 sequence (P23204 whole entry): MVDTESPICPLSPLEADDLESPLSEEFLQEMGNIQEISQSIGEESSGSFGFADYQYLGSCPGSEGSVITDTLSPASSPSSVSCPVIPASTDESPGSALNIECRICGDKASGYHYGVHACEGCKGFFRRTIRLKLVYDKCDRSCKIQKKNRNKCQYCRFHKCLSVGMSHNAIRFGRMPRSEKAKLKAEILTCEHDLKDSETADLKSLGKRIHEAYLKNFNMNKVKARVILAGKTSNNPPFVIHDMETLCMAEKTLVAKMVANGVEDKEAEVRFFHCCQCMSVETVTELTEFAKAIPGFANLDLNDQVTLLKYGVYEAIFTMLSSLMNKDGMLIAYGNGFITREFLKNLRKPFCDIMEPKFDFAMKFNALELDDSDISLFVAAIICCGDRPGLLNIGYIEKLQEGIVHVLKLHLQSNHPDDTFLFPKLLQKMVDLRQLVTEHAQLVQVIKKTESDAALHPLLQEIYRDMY
The data set can be described thus: Agonist activity at mouse PPARalpha. It counts as functional.

Data set [6] has as its target T4, Peroxisome proliferator-activated receptor delta (Mus musculus, UniProt P35396).
T4 sequence (P35396 whole entry): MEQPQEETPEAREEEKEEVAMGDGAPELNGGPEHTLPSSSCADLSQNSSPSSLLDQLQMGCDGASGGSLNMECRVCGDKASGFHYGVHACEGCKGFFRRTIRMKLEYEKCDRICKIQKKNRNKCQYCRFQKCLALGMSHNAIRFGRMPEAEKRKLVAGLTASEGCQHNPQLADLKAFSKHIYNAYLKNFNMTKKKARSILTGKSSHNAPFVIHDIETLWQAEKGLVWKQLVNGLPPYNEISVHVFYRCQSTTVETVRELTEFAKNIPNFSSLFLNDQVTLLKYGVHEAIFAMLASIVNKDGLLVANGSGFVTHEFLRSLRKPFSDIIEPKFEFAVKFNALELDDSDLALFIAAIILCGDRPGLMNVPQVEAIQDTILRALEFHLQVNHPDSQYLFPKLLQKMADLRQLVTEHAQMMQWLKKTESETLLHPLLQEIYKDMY
As to the kind of experiment: Agonist activity at mouse PPARdelta. It counts as functional.

Data set [7] in a line: Half life in rat at 1 mg/kg, po. It counts as ADME, organism-based. Also noted: dose 1 mg/kg, route oral. Particulars: in vivo.
A short description of data set [8]: Cmax in rat at 1 mg/kg, po. Also noted: dose 1 mg/kg, route oral. It counts as ADME, organism-based. Particulars: in vivo.
Data set [9] deals with Canis familiaris. The data set can be described thus: Volume of distribution at steady state in dog at 0.3 mg/kg, po. It counts as ADME, organism-based, Canis lupus familiaris. Also noted: dose 0.3 mg/kg, route oral. The conditions noted are these: in vivo.
In data set [10] the test system is Canis familiaris. The data set can be described thus: Antidyslipidemic activity in high-fat diet fed dog assessed as decrease in serum triglyceride level at 0.003 mg/kg, po administered QD for 1 week (reference value: 98 +/- 4 mg/dL). It counts as functional, Canis lupus familiaris.
Data set [11] relates to Canis familiaris. As to the kind of experiment: Antidyslipidemic activity in high-fat diet fed dog assessed as decrease in serum triglyceride level at 0.03 mg/kg, po administered QD for 1 week (reference value: 98 +/- 4 mg/dL). It counts as functional, Canis lupus familiaris.
Data set [12] deals with Canis familiaris. As to the kind of experiment: Antidyslipidemic activity in high-fat diet fed dog assessed as decrease in free fatty acid at 0.03 mg/kg, po administered QD for 1 week (reference value: 0.624 +/- 0.057 mEq/L). It counts as functional, Canis lupus familiaris.
Data set [13] concerns Canis familiaris. As to the kind of experiment: Antidyslipidemic activity in high-fat diet fed dog assessed as decrease in total cholesterol at 0.003 mg/kg, po administered QD for 1 week (reference value: 205 +/- 6 mg/dL). It counts as functional, Canis lupus familiaris.
The subject of data set [14] is Canis familiaris. As to the kind of experiment: Antidyslipidemic activity in high-fat diet fed dog assessed as decrease in non-HDL cholesterol at 0.003 mg/kg, po administered QD for 1 week (reference value: 75 +/- 5 mg/dL). It counts as functional, Canis lupus familiaris.
For data set [15], the system named is Canis familiaris. The data set can be described thus: Toxicity in high-fat diet fed dog assessed as change in body weight at 0.01 mg/kg, po administered QD for 1 week (reference value: 14.8 +/- 0.7 kg). It counts as organism-based, Canis lupus familiaris. The arrangement: dose 0.01 mg/kg, route oral. Particulars: in vivo, 168 h.
Data set [16] has as its system Canis familiaris. As to the kind of experiment: Toxicity in high-fat diet fed dog assessed as change in body weight at 0.03 mg/kg, po administered QD for 1 week (reference value: 14.8 +/- 0.7 kg). It counts as organism-based, Canis lupus familiaris. Also noted: dose 0.03 mg/kg, route oral. Particulars: in vivo, 168 h.
In data set [17] the test system is Canis familiaris. The data set can be described thus: Toxicity in high-fat diet fed dog assessed as effect on food intake at 0.03 mg/kg, po administered QD for 1 week (reference value: 3.67+/-0.09 kg). It counts as organism-based, Canis lupus familiaris. The arrangement: dose 0.03 mg/kg, route oral. The conditions noted are these: in vivo, 168 h.

As for `Cc1nc(-c2ccc(Cl)cc2)sc1C(=O)N[C@H]1CCCN(c2cccc(C(=O)O)c2)C1`, the EC50 in [1] was 0.008 µM; in data set [2], 2.7 µM; in data set [3], more than 15 µM; in data set [4], more than 14 µM; in [5], 4.7 µM; in data set [6], 6.6 µM. This compound gave a half-life in data set [7] of 10 h. In [8], this compound had a Cmax of 0.316 µg/mL. The Vdss in data set [9] worked out at 1.66 L/kg. The Activity in [10] stood at 64 mg/dL; in data set [11], 44 mg/dL; in [12], 0.576 mEq/L; in [13], 190 mg/dL; in [14], 65 mg/dL; in [15], 14.8 kg. Also, the Activity in [16] stood at 14.8 kg; in data set [17] it was 3.51 kg.
